Experimental data: patent publication US12649723B2, “Carbonohydrazonoyl dicyanide compounds comprising 2 or more aryl or heteroaryl connected via linker and use thereof” (KOREA INSTITUTE OF SCIENCE AND TECHNOLOGY, priority 2020, dated 2026)

Assays:
[1] = Liver microsome stability; assay type: in vitro ADME, dog; settings: amount of substrate remaining; compound 1 μM, 30 minutes, 37° C., NADPH
Method: The stability of liver microsomes due to the compounds prepared according to Examples 1 to 175 was confirmed. Specifically, four types of liver microsomes (human, dog, rat, and mouse, each 0.25 mg/mL), a 0.1 M phosphate buffer solution (pH 7.4), and each of the compounds at a concentration of 1 μM were mixed and pre-cultured at 37° C. for 5 minutes and further cultured at 37° C. for 30 minutes together with an NADPH generation system solution added thereto. Thereafter, the reaction was terminated by adding an acetonitrile solution containing an internal standard material (chloropropamide) and centrifuged for 5 minutes (14,000 rpm, 4° C.), and then a supernatant was injected into an LC-MS/MS system for analysis of substrate drugs to thereby evaluate metabolic stability due to 8 types of compounds.
The amount of the substrate remaining after the reaction was analyzed using the Shimadzu Nexera XR system and TSQ Vantage (Thermo). In an HPLC column, Kinetex XB-C18 (2.1 mm×100 mm, particle size of 2.6 μm; Phenomenex, USA) was used, and mobile phases were (A) distilled water containing 0.1% formic acid and (B) acetonitrile containing 0.1% formic acid. Analyst software (version 1.6.3) and Xcalibur (version 1.6.1) were used for data analysis.

[2] = Liver microsome stability; assay type: in vitro ADME, human; settings: amount of substrate remaining; compound 1 μM, 30 minutes, 37° C., NADPH
Outline: (§1)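 Human, dog, rat and mouse liver microsomes (0.25 mg/mL) with 1 μM compound in 0.1 M phosphate buffer pH 7.4, preincubated 5 min at 37° C, then incubated 30 min at 37° C with NADPH-generating system. Reaction stopped with acetonitrile containing internal standard; remaining parent quantified by LC-MS/MS.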

[3] = Liver microsome stability; assay type: in vitro ADME, mouse; settings: amount of substrate remaining; compound 1 μM, 30 minutes, 37° C., NADPH
Outline: as §1

tau protein = target: T1, tau protein (Homo sapiens, UniProt P10636); experiment: Tau-BiFC cell model: inhibition of tau protein aggregation; assay type: cell-based; settings: for remaining activity at 10 µM: 48 h, compound 10 μM, BiFC fluorescence, Forskolin-only group = 100% tau protein-aggregated state, read-out: Response (% @10 μM); for IC50: Tau BiFC in cells, with Forskolin 30 μM, 48 hours
T1 construct: fused on or other part: Split fluorescent-protein halves for BiFC are fused to tau; In the published tau-BiFC line these are Venus VN173 and VC155
Outline: (§2)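 Aggregation was induced by 30 μM Forskolin co-applied with test compound for 48 h, with screening at 1, 3, 10 μM and dose-response at 0.03–30 μM. Nuclei were stained with Hoechst (2 μg/mL) and counted against Forskolin-only wells for cytotoxicity. Inhibition came from BiFC fluorescence relative to Forskolin-only versus untreated cells, with IC50 by nonlinear regression.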

Tau-BiFC cells = experiment: Cell viability (cytotoxicity) in tau-BiFC cells, count of stained nuclei; assay type: cell-based; settings: compound 10 μM; Forskolin-only group = 100% cell viability
Outline: as §2

[4] = Liver microsome stability; assay type: in vitro ADME, rat; settings: amount of substrate remaining; compound 1 μM, 30 minutes, 37° C., NADPH
Outline: as §1

CYP3A4 = target: T2, CYP3A4 (Homo sapiens, UniProt P08684); experiment: Inhibitory effect on CYP coenzyme activity, human liver microsomes; assay type: in vitro ADME; settings: compound 10 μM; human liver microsomes 0.25 mg/mL; substrate midazolam; 15 minutes
T2 construct: human liver microsomes (0.25 mg/mL); from tissue; host or cells: human liver microsomes
Method: (§3) The inhibitory effects of the compounds prepared according to Examples 1 to 175 on CYP coenzyme activity were identified. Specifically, human liver microsomes (0.25 mg/mL), a 0.1 M phosphate buffer solution (pH 7.4), a substrate drug cocktail of five types of drug metabolism enzymes (50 μM phenacetin, 10 μM diclofenac, 100 μM S-mephenytoin, 5 μM dextromethorphan, and 2.5 μM midazolam), and the compound at a concentration of 0 μM or 10 μM were mixed and pre-cultured at 37° C. for 5 minutes, and then further cultured at 37° C. for 15 minutes together with an NADPH generation system solution added thereto. Thereafter, the reaction was terminated by adding an acetonitrile solution containing an internal standard material (terfenadine) and centrifuged for 5 minutes (14,000 rpm, 4° C.), and then a supernatant was injected into an LC-MS/MS system for simultaneous analysis of metabolites of the substrate drugs to thereby evaluate the inhibitory effects on drug metabolism.
(§4) Metabolites of each CYP coenzyme indicator drug generated through the reaction were analyzed using the Shimadzu Nexera XR system and TSQ Vantage (Thermo). In an HPLC column, Kinetex C18 (2.1 mm×100 mm, 2.6 μm, particle size; Phenomenex, USA) was used, and mobile phases were (A) distilled water containing 0.1% formic acid and (B) acetonitrile containing 0.1% formic acid, and a gradient program shown in Table 3 was applied thereto.
(§5) The generated metabolites were quantified using a multiple reaction monitoring (MRM) quantification mode, and Xcalibur (version 1.6.1) was used for data analysis. Inhibitory effects of the novel compound prepared according to the examples of the present invention on CYP coenzyme activity are shown in Table 4 below.

CYP1A2 = target: T3, CYP1A2 (Homo sapiens, UniProt P05177); experiment: as above; assay type: in vitro ADME; settings: compound 10 μM; human liver microsomes 0.25 mg/mL; substrate phenacetin; 15 minutes
T3 construct: human liver microsomes (0.25 mg/mL); from tissue; host or cells: human liver microsomes
T3 sequence (P05177 1-516): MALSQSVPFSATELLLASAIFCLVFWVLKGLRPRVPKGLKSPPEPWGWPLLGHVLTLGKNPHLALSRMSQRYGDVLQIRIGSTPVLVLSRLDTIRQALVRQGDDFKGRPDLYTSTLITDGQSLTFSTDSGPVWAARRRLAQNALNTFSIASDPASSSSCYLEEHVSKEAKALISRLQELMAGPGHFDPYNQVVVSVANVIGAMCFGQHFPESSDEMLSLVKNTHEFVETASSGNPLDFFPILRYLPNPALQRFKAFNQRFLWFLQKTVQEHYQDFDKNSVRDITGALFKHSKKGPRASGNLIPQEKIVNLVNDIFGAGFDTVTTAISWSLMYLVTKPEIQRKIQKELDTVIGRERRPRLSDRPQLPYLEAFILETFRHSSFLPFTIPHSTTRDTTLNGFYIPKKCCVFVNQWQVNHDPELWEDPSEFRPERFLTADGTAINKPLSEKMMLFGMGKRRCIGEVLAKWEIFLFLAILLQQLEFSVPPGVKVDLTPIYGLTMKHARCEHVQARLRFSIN
Method: as §3, §4, §5

CYP2C9 = target: T4, CYP2C9 (Homo sapiens, UniProt P11712); experiment: as above; assay type: in vitro ADME; settings: compound 10 μM; human liver microsomes 0.25 mg/mL; substrate diclofenac; 15 minutes
T4 construct: human liver microsomes (0.25 mg/mL); from tissue; host or cells: human liver microsomes
Method: as §3, §4, §5

CYP2D6 = target: T5, CYP2D6 (Homo sapiens, UniProt P10635); experiment: as above; assay type: in vitro ADME; settings: compound 10 μM; human liver microsomes 0.25 mg/mL; substrate dextromethorphan; 15 minutes
T5 construct: human liver microsomes (0.25 mg/mL); from tissue; host or cells: human liver microsomes
Method: as §3, §4, §5

CYP2C19 = target: T6, CYP2C19 (Homo sapiens, UniProt P33261); experiment: as above; assay type: in vitro ADME; settings: compound 10 μM; human liver microsomes 0.25 mg/mL; substrate S-mephenytoin; 15 minutes
T6 construct: human liver microsomes (0.25 mg/mL); from tissue; host or cells: human liver microsomes
Method: as §3, §4, §5

T2 sequence (P08684 whole entry): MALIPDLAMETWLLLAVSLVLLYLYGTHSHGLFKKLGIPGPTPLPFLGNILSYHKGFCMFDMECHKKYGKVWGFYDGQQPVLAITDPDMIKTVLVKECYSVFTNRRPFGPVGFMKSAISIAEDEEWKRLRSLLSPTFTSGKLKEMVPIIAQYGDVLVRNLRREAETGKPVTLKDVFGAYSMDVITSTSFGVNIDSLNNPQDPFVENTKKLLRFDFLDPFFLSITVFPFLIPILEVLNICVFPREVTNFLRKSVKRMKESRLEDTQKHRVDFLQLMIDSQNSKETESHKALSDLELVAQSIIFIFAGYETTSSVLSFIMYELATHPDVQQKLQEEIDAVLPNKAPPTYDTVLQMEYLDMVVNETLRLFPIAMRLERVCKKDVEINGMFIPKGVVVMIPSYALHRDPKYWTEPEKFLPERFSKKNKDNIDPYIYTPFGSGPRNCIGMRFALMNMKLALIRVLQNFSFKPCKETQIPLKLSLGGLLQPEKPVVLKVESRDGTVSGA
T6 sequence (P33261 whole entry): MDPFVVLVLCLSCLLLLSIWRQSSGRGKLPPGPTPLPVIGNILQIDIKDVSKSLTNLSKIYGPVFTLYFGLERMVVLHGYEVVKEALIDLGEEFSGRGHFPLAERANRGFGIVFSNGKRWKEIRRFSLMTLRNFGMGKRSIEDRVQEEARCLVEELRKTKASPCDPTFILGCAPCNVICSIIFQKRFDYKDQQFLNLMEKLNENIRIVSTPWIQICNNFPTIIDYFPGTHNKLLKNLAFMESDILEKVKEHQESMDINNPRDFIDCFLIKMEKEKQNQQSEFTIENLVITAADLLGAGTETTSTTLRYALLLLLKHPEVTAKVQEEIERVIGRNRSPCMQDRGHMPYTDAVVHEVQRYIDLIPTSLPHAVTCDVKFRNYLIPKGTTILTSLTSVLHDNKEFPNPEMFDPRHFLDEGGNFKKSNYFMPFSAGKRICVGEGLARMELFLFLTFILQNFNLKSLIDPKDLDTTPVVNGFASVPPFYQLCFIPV
T5 sequence (P10635 whole entry): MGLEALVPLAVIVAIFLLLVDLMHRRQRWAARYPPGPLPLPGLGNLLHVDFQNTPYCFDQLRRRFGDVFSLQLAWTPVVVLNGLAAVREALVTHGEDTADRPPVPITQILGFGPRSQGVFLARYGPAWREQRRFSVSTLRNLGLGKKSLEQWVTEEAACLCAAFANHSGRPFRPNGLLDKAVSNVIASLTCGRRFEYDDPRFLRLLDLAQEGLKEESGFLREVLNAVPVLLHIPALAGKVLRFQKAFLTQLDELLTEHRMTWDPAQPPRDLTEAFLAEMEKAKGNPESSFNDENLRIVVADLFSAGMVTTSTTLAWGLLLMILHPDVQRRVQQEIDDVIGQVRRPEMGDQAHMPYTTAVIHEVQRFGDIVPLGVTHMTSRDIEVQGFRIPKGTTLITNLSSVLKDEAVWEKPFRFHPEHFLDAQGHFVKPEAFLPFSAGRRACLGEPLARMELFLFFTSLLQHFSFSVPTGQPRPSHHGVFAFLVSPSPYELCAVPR
T1 sequence (P10636 2-441 isoform P10636-8 limits assumed): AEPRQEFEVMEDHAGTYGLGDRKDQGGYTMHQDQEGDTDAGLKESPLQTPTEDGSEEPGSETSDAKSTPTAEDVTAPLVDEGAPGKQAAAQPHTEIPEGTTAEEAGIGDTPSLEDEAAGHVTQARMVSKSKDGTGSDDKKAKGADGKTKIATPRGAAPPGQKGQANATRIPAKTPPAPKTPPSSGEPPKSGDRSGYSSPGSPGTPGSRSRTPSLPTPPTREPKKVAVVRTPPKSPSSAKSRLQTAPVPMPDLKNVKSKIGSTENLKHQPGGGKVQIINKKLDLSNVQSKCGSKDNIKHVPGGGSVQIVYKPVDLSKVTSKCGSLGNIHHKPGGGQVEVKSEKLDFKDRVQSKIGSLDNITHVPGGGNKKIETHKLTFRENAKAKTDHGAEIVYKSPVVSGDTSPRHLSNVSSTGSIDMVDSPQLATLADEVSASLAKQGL
T4 sequence (P11712 whole entry): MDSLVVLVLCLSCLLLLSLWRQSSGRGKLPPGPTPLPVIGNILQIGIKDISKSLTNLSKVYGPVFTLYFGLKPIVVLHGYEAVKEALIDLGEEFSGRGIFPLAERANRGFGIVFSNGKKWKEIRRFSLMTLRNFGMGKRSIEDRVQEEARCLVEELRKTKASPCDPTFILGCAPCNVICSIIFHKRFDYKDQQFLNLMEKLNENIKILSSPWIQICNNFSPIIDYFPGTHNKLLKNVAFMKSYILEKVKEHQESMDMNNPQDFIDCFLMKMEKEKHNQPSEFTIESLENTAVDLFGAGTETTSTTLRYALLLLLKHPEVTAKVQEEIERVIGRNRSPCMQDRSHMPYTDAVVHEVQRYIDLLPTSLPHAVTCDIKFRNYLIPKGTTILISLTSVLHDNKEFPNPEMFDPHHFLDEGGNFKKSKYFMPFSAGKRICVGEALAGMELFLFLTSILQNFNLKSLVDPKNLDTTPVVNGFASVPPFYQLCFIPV

| SMILES | Dog (%) [1] | Human (%) [2] | Mouse (%) [3] | remaining activity at 10 µM (tau protein) | IC50 (tau protein) | Cell viability (% @10 μM) (Tau-BiFC cells) | Rat (%) [4] | CYP3A4 (CYP3A4) | CYP1A2 (CYP1A2) | CYP2C9 (CYP2C9) | CYP2D6 (CYP2D6) | CYP2C19 (CYP2C19) |
| --- | --- | --- | --- | --- | --- | --- | --- | --- | --- | --- | --- | --- |
| N#CC(C#N)=NNc1ccc(NC(=O)c2ccc(C(F)(F)F)cc2)nc1 [Compound 27, (6-(4-(trifluoromethyl)benzamido)pyridin-3-yl)carbonohydrazonoyl dicyanide] | 3.6% | 86.9% | 5.4% | 0% | 370 nM | 122% | 8.8% | >100 | 76.8 | 23.7 | 76 | 78.3 |
| Cc1cccc(C(=O)Nc2ccc(NN=C(C#N)C#N)cn2)c1F [Compound 20, (6-(2-fluoro-3-methylbenzamido)pyridin-3-yl)carbonohydrazonoyl dicyanide] | >100% | 91.9% | 68.3% | 0% | 180 nM | 110.4% | 33.7% | 76.1 | 69.4 | 22.3 | 75.8 | 72 |
| Cc1cnc(C(=O)Nc2ccc(NN=C(C#N)C#N)c(C)c2)cn1 [Compound 6, (2-methyl-4-(5-methylpyrazine-2-carboxamido)phenyl)carbonohydrazonoyl dicyanide] | >100% | 77.5% | 74.8% | 43.9% |  | 61.3% | 88.4% | 62.2 | 85.2 | 38 | 75.7 | 64.8 |
| Cc1cnc(C(=O)Nc2ccc(NN=C(C#N)C#N)cn2)cn1 [Compound 1, (6-(5-methylpyrazine-2-carboxamido)pyridin-3-yl)carbonohydrazonoyl dicyanide] | 66.9% | 86.5% | 21.2% | 0% | 400 nM | 94.3% | 56.7% | 85 | 80.7 | 71.1 | 93.1 | 74.6 |
| Cc1ccc(NC(=O)c2ccc(NN=C(C#N)C#N)cn2)cn1 [Compound 38, (6-(6-methylpyridin-3-ylcarbamoyl)pyridin-3-yl)carbonohydrazonoyl dicyanide] | 98.8% | 99.1% | 96.4% | 0% | 990 nM | 110.6% | >100% | 92.4 | 92.5 | 49.1 | >100 | 83.0 |
| Cc1cncc(NC(=O)c2ccc(NN=C(C#N)C#N)cc2)n1 [Compound 46, (4-(6-methylpyrazin-2-ylcarbamoyl)phenyl)carbonohydrazonoyl dicyanide] | >100% | >100% | >100% | 0% | 860 nM | 155% | 86.3% | 85.5 | 97.8 | 70.4 | >100 | 83.1 |
| Cc1cnc(NC(=O)c2ccc(NN=C(C#N)C#N)cc2)cn1 [Compound 45, (4-(5-methylpyrazin-2-ylcarbamoyl)phenyl)carbonohydrazonoyl dicyanide] | >100% | 96.8% | >100% | 0% | 1180 nM | 140.5% | >100% | 96.7 | 95.5 | 80.8 | >100 | 83.4 |
| N#CC(C#N)=NNc1ccc(NC(=O)c2ccc(F)cc2)nc1 [Compound 16, (6-(4-fluorobenzamido)pyridin-3-yl)carbonohydrazonoyl dicyanide] | 59.5% | 91.6% | 67.3% | 0% | 110 nM | 66.2% | 61% | 86.9 | 71.4 | 40.3 | 80.8 | 78.6 |
| Cc1cnc(C(=O)Nc2ccc(NN=C(C#N)C#N)c(F)c2)cn1 [Compound 3, (2-fluoro-4-(5-methylpyrazine-2-carboxamido)phenyl)carbonohydrazonoyl dicyanide] | 75.4% | 95.7% | 46.1% | 0% | 30 nM | 62.1% | 72.6% | 80.8 | 85.6 | 61.9 | 83.6 | 78.2 |
| Cc1cc(F)cc(C(=O)Nc2ccc(NN=C(C#N)C#N)cn2)c1 [Compound 19, (6-(3-fluoro-5-methylbenzamido)pyridin-3-yl)carbonohydrazonoyl dicyanide] | 78.8% | 84.8% | 62.3% | 0% | 270 nM | 119.1% | 51.4% | 76.5 | 55.1 | 14.6 | 73 | 73.1 |
